# Laboratory results reported in US4789543A, “Neutral technetium 99-m complexes useful as radiodiagnostic agents” (E. I. Du Pont de Nemours and Company, priority 1984, dated 1988).
# How the values were obtained:
# hepatobiliary transit = details: commercially available agent, background statement; cited from earlier work
# [1] = test system: hepatobiliary transit (liver, gall bladder and gastro-intestinal tract); assay: Visualization of hepatobiliary transit by scintillation camera after intravenous injection (rabbit); type: in vivo, male New Zealand Albino rabbit
# Method: A lyophylized vial of HEPATOLITE™ (New England Nuclear Corporation's brand of Technetium Tc^99m Disofenin) is labelled with ^99m Tc-pertechnetate in accordance with manufacturer's directions. At least 1 mCi of the labelled preparation is injected intravenously into a 2.5 Kg male New Zealand Albino rabbit. The rabbit is positioned under a Searle Pho-Gamma scintillation camera in such a way that the liver and gastro-intestinal tract are within the field of view.
# Greater than 1 mCi of the ^99m Tc-Cl(SO2)-DMPE complex from either Example 1 or 2 is injected into a rabbit as in Example 3.
smiles,measurement,setting,value
"CC(C)c1cccc(C(C)C)c1NC(=O)CN(CC(=O)O)CC(=O)O (99mTc complex, metal not drawn) [Disofenin]",time to obtain an image of the hepatobiliary transit,hepatobiliary transit,≤ 30 min
same,sequential images from the time of injection,"[1]; 2.5 Kg male rabbit, at least 1 mCi i.v.","initial liver uptake with gradual visualization of the gall bladder and gastro-intestinal tract, analogous to the diagnostically efficacious results obtained in clinical studies of normal healthy humans"
same,"time to images of the liver, gall bladder and gastro-intestinal tract (hepatobiliary transit)","[1]; rabbit, > 1 mCi (complex) or at least 1 mCi (Disofenin) i.v., sequential images",about 30 minutes
